Holding throughout (assay): NCI-60 cell line screen, 48 h
In experiment [1] the test system is 786-0 renal.
In experiment [2] the test system is A549 NSCLC.
Experiment [3] deals with CAKI-1 renal.
For experiment [4], the system named is IGROV1 ovarian.
Experiment [5] deals with K-562 leukemia.
Experiment [6] has as its system LOX IMVI melanoma.
The test system of experiment [7] is NCI-H460 lung.
The test system of experiment [8] is OVCAR-4 ovarian.
Experiment [9] relates to OVCAR-8 ovarian.
Experiment [10] relates to SF-539 CNS.
Experiment [11] concerns SK-MEL-2 melanoma.
Experiment [12] relates to SNB-75 CNS.
Experiment [13] concerns SW-620 colon.
Experiment [14] has as its system UACC-257 melanoma.
Experiment [15] relates to UACC-62 melanoma.

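How tested: cells in 96-well plates exposed to compound for 48 hours at five concentrations. Definition used: TGI = concentration required for complete inhibition of growth.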

As for `COC(=O)C12C3C4C5(C(=O)OC)C(C1C35C(=O)N(C(C)C)C(C)C)C42C(=O)N(C(C)C)C(C)C` (configuration not stated), the TGI is over 50 µM in experiment [1]; over 50 µM in experiment [2]; over 50 µM in experiment [3]; over 50 µM in [4]; over 50 µM in experiment [5]; over 43.6 µM in experiment [6]. Moreover, the TGI in [7], in experiment [8], in [9], in experiment [10], in experiment [11] and in experiment [12] was over 50 µM each time. Further, the TGI in experiment [13] is over 43.6 µM; in experiment [14], over 50 µM; in [15], over 50 µM.
In the case of `Cc1ccc2c(c1CCCC(C)(C)O)C(=O)C(=O)C(C(C)C)=C2O`, the TGI in experiment [1], in [2], in experiment [3], in [4], in [5] and in experiment [7] was over 100 µM in each case. The TGI in experiment [8], in experiment [9], in experiment [10], in [11], in experiment [12] and in [13] was over 100 µM each time.
As to `Cc1ccc(C2CC(c3ccco3)=NN2c2ccccc2)o1` (configuration not stated), the TGI in experiment [1], in experiment [2], in experiment [4], in [5], in experiment [6] and in [7] was over 100 µM throughout. Moreover, the TGI in experiment [8], in experiment [9], in [10], in [11], in experiment [12] and in experiment [13] was over 100 µM in each case. For the same molecule, in experiment [15], the TGI was over 100 µM.
On to `Nc1ccc(C(=O)NN2C(=O)C(Cl)C2c2ccccc2Cl)cc1` (configuration not stated), for which the TGI in experiment [1] came to 3.35 µM; in experiment [2], 27.8 µM; in experiment [3], 26.9 µM; in [4], 26.4 µM; in experiment [6], 2.9 µM; in experiment [7], 16.5 µM. In addition, the TGI in [8] was found to be 27.1 µM; in [9], 10.8 µM; in experiment [10], 20.2 µM; in experiment [11], 24.5 µM; in [12], 31.3 µM; in experiment [13] it was 10.7 µM. Moreover, the results for the TGI in experiment [14] and in experiment [15] were 26.8 µM and 20.8 µM, respectively.
For the molecule `Cc1cn2c(=O)c3ccccc3nc2s1`, the TGI in [1], in experiment [2], in [3], in experiment [4], in [5] and in experiment [6] was over 100 µM each time. Moreover, the TGI in [7], in [8], in experiment [9], in experiment [10], in experiment [11] and in [12] was over 100 µM in each case. Moreover, the TGI in [13], in [14] and in experiment [15] was over 100 µM throughout.
Take `C/C(=C1/CCCC2(N=NCC2c2ccccc2)C1=O)c1ccccc1` (configuration not stated): the TGI in experiment [1] is over 100 µM; in [2] it was 92.6 µM; in experiment [4], over 100 µM; in experiment [5] it was 41.4 µM; in [6], over 100 µM; in experiment [7], over 100 µM. The TGI in experiment [8] was over 100 µM; in experiment [9] it was 64.2 µM; in experiment [10] it was over 100 µM; in [11], 42.1 µM; in [12], 99.7 µM; in [13], over 100 µM. For the same molecule, the TGI in experiment [14] was 52.7 µM; in experiment [15], 47.7 µM.
In the case of `O=[N+]([O-])c1ccc(-n2nnc(C3=NCCCN3)c2-c2ccc(Cl)cc2)cc1`, the TGI in experiment [1], in experiment [2], in experiment [3], in experiment [4], in experiment [5] and in experiment [6] was over 100 µM throughout. In addition, the TGI in experiment [7], in [8], in experiment [9], in [10], in [11] and in experiment [12] was over 100 µM in each case. Also, the TGI in [13], in experiment [14] and in [15] was over 100 µM each time.
For the molecule `N#C/C(=C\c1ccc(O)c(O)c1)C(N)=O`, the TGI in experiment [1], in [2], in [3], in experiment [4], in [5] and in experiment [7] was over 100 µM throughout. The TGI in experiment [8], in experiment [9], in experiment [10], in experiment [11], in [12] and in experiment [13] was over 100 µM throughout. Further, the TGI in experiment [14] and in [15] was over 100 µM throughout.
Take `CCOC(=O)C(N=Nc1ccc(S(N)(=O)=O)cc1)C(C)=O` (configuration not stated): the TGI in experiment [1], in experiment [2], in [3], in experiment [4], in [5] and in experiment [6] was over 100 µM in each case. The TGI in [7], in [8], in experiment [9], in [10], in [11] and in experiment [12] was over 100 µM each time. The TGI in experiment [13], in experiment [14] and in experiment [15] was over 100 µM throughout.
In the case of `Cc1cccc(NC(=O)/C=C/c2ccc(N(CCC#N)CCC#N)cc2C)c1`, the TGI in experiment [1], in experiment [2], in experiment [3], in [4], in experiment [5] and in [6] was over 100 µM throughout. The TGI in experiment [7], in experiment [8], in experiment [9], in [10], in [11] and in [12] was over 100 µM each time. The TGI in experiment [13], in [14] and in experiment [15] was over 100 µM each time.
For `CCCCCC(C[N+]1(C)CCOCC1)C(=O)/C=C/c1ccccc1` (configuration not stated), the TGI in experiment [1] is 4.26 µM; in experiment [2] it was 62 µM; in experiment [3], 32.1 µM; in [4], 40.1 µM; in experiment [5], 18 µM; in experiment [6] it was 4.02 µM. The TGI in experiment [7] was over 61.5 µM; in experiment [8] it was 15.9 µM; in [9] it was 39.3 µM; in experiment [10], 23.5 µM; in [11], 29.5 µM; in experiment [12], 15.7 µM. Also, the values for the TGI in experiment [13], in experiment [14] and in [15] were 7.51 µM, 27.6 µM and 26.6 µM, respectively.
With `Clc1ccc(-c2c(C3=NCCN3)nnn2-c2ccc(Cl)cc2)cc1`, the TGI in experiment [1] was 58.4 µM; in experiment [2], over 100 µM; in experiment [3], over 100 µM; in [4], over 100 µM; in experiment [5], 35.9 µM; in experiment [6], over 100 µM. For the same molecule, the TGI in experiment [7] is over 100 µM; in experiment [8], over 100 µM; in [9], over 100 µM; in experiment [10], 34.2 µM; in [11], 26.1 µM; in [12] it was 48.3 µM. Moreover, the TGI in experiment [13] is 73.8 µM; in experiment [14] it was 33 µM; in experiment [15] it was 32.7 µM.
In the case of `COC(=O)C(=C/c1ccc(OC)cc1)/C(C(=O)O)=C(/C)c1ccccc1`, the TGI in experiment [1], in experiment [2], in experiment [3], in [4], in experiment [5] and in experiment [6] was over 100 µM throughout. The TGI in experiment [7], in [8], in experiment [9], in experiment [10], in experiment [11] and in experiment [12] was over 100 µM throughout. The TGI in experiment [13], in experiment [14] and in experiment [15] was over 100 µM throughout.
In the case of `COc1cc2c(cc1OCc1ccccc1)CNCC2`, the TGI in experiment [1], in [2], in [3], in experiment [4], in experiment [5] and in experiment [6] was over 100 µM throughout. Moreover, the TGI in experiment [7], in experiment [8], in experiment [9], in experiment [10], in [11] and in experiment [12] was over 100 µM each time. The TGI in experiment [13], in [14] and in experiment [15] was over 100 µM in each case.
In the case of `COc1ccc(C(=O)C(CO)Oc2ccccc2OC)cc1OC` (configuration not stated), the TGI in [1], in [2], in experiment [3], in [4], in experiment [5] and in [6] was over 100 µM throughout. Besides, the TGI in experiment [7], in experiment [8], in experiment [9], in experiment [10], in experiment [11] and in experiment [12] was over 100 µM throughout. The TGI in experiment [13], in [14] and in experiment [15] was over 100 µM each time.
Regarding `O=c1[nH]cc(COCC(F)(F)C(F)(F)C(F)(F)C(F)F)c(=O)[nH]1`, the TGI in [1], in experiment [2], in experiment [3], in experiment [4], in experiment [5] and in [6] was over 100 µM in each case. In addition, the TGI in experiment [9], in [11], in experiment [12], in experiment [13], in experiment [14] and in [15] was over 100 µM each time.
As for `O=C(C[n+]1ccccc1)NNC(=O)/C(=C/c1ccc2c(c1)OCO2)NC(=O)c1ccccc1`, the TGI in [1] was over 90.7 µM; in [2] it was over 100 µM; in experiment [3] it was over 100 µM; in experiment [4], over 100 µM; in experiment [5], over 100 µM; in experiment [6] it was 49 µM. In addition, the TGI in experiment [7] was 98.3 µM; in experiment [8] it was over 94.5 µM; in [9] it was over 85 µM; in [10], 75.1 µM; in experiment [11] it was over 100 µM; in experiment [12] it was over 95.9 µM. Moreover, the TGI in experiment [13], in experiment [14] and in [15] was over 100 µM each time.
Consider `COc1cc2c(cc1OC)C(O)[C@H](Br)C(C)(C)O2` (some centres not stated), for which the TGI in [1], in [2], in experiment [4], in experiment [5], in experiment [6] and in [7] was over 100 µM throughout. Moreover, the TGI in experiment [8], in experiment [9], in experiment [10], in experiment [11], in [12] and in experiment [13] was over 100 µM throughout. The TGI in [14] and in [15] was over 100 µM in each case.
For the molecule `CCN1CCN(c2ccc(Nc3ccnc4ccc5nn(C)nc5c34)cc2)CC1`, the TGI in experiment [1] was 22.6 µM; in [2], 27.3 µM; in experiment [3], 29 µM; in experiment [4], 39.5 µM; in experiment [5], over 100 µM; in experiment [6] it was 20.1 µM. For the same molecule, the TGI in [7] was 17.2 µM; in experiment [8], 26.1 µM; in [9] it was 25.3 µM; in experiment [10] it was 27.2 µM; in experiment [12], 26.4 µM; in experiment [13] it was 19.7 µM. Moreover, the TGI in experiment [14] was 30.7 µM; in [15] it was 30.8 µM.
